Counter-ions that a name gives are not always drawn.
Experiments:
TCO-CC49 = assay: Trapping of TCO-CC49 from PBS solution by tetrazine-agarose columns, eluate titrated with [111In]8; settings: n = 2; for % TE mean ± SD, 2nd evaluation, TCO-CC49: repeated 9 days after first evaluation, columns stored at 4° C.; for % TE mean ± SD, 1st evaluation, TCO-CC49: trapping efficiency, single pass, 100 μg/mL in PBS, 0.5 mL/min
Experimental: (§1) Tetrazine-agarose columns, two for each tetrazine, each prepared from 33 mg of dry NHS-agarose as described above (bed volume approx. 0.25 mL), and a control column prepared from tetrazine-free agarose, were equilibrated with 2-3 bed volumes of PBS. Antibody TCO-CC49 (approx. 1 TCO groups per 20 kDa molecular weight) or polymer TCO-KS254 (approx. 1 TCO group per 5 kDa molecular weight) were dissolved in PBS with to a mass concentration of 100 μg/mL. Aliquots of these solutions (0.4 mL) were pumped through the tetrazine-agarose columns at 0.5 mL/min pumping speed using an infusion pump (AL-1000, World Precision Instruments). When all solution had entered the resin bed, an aliquot of PBS (0.4 mL) was immediately added on top of it and pumped through the column at 0.5 mL/min. Total eluate (total volume approx. 0.8 mL) was collected and the amount of TCO-CC49 or TCO-KS254 was determined by ^111In-tetrazine ([^111In]8) titration.
(§2) For each column, trapping of both TCO-CC49 and TCO-KS254 was tested, and the column was rinsed with 2-3 volumes of PBS between tests. For pairs of columns with the same tetrazine, the order of testing (TCO-CC49 first or TCO-KS254 first) for one column was opposite to the order of testing for another column.
(§3) An aliquot of each trapping column eluate (6 μL) was mixed with an equal volume of 10 μM [111In]8 solution. Resulting mixtures were shaken at 37° C. for at least 1 hour to ensure full consumption of reactive TCO moieties. Then NuPage LDS Sample buffer was added to all mixtures according to the supplier's instructions, samples were heated for 10 min at 70° C. and applied on the NuPAGE 4-12% Bis-Tris SDS-PAGE gels. SDS-PAGE was run in MES-SDS buffer at 150V for 40-45 min. Separation was monitored by running SeeBlue® Plus2 Pre-Stained Protein Standard along with radiolabeled polymer samples. Control mixtures of 6 μL of [^111In]8 solution with 6 μL of PBS and reference mixtures of 6 μL of [^111In]8 solution and 6 μL of 50 μg/mL solutions of TCO-CC49 or TCO-KS254 were prepared and processed in the same manner. Developed gels were exposed against phosphor storage screens (PerkinElmer Multisensitive), which were then read in the Cyclone Plus phosphorimager (Packard Instruments, USA). Autoradiograms were quantified using Optiquant 3.0 software (Packard Instruments). Molecular weight reference ladder from the photo of the same gel aligned and merged to the autoradiogram is shown to the left in FIG. 8. Radioactivity found in the section of the gel corresponding to molecular weights of 60 kDa and above (using SeeBlue standards as reference) was considered polymer-bound or antibody-bound.
(§4) Trapping efficiency (TE) was calculated according to the formula:
(§5) % TE=100%×(1−% BTz/% BnoTz),
(§6) where % BTz is the percentage of polymer/antibody bound ^111In activity in the eluate collected from a column with tetrazine-conjugated agarose, while % BnoTz is the percentage of polymer/antibody bound ^111In activity in the eluate collected from a control column with tetrazine-free agarose.
(§7) For each column, evaluation of trapping efficiency for TCO-CC49 and TCO-KS254 was repeated 9 days after the first evaluation. In between evaluations, the columns were stored at 4° C. in phosphate-buffered saline with 0.1% vol/vol of ProClin™ 150 (Sigma-Aldrich).

[1] = Trapping of TCO-KS254 from PBS solution by tetrazine-agarose columns, eluate titrated with [111In]8; settings: for % TE mean ± SD, 2nd evaluation, TCO-KS254: repeated 9 days after first evaluation, columns stored at 4° C.; for % TE mean ± SD, 2nd evaluation, TCO-KS254 / % TE mean ± SD, 1st evaluation, TCO-KS254: n = 2; for % TE mean ± SD, 1st evaluation, TCO-KS254: trapping efficiency, single pass, 100 μg/mL in PBS, 0.5 mL/min; for Trapping efficiencies of TCO-KS254 polymer compared with resins with shorter or no linker (tetrazines 1, 3 and 5): comparison in words, longer linkers
Experimental: as §1, §2, §3, §4, §5, §6, §7

[2] = Dissolution of amino-tetrazine in phosphate-buffered saline; type: physicochemical; settings: PBS, 120 mM NaCl, 10 mM phosphate buffer pH 7.4
Experimental: Amino-tetrazine (1-6) was dissolved in phosphate-buffered saline (PBS, 120 mM NaCl, 10 mM phosphate buffer pH 7.4) to a concentration of 4 mM (tetrazine 5 could only be dissolved to a concentration of 2.7 mM). This solution was added to dry NHS-activated agarose resin (Pierce/Thermo Fisher Scientific) at the ratio of 1 mL solution per 60 mg resin. The resin was shaken in a plastic tube with a filter frit for 2-3 h at room temperature, then tetrazine solution was removed by vacuum filtration, and the resin was washed 3 times with PBS at the same mL-per-mg resin ratio. After that, Tris-HCl buffer (0.5M, pH 7.4) was added to the resin, the resin was shaken for 2-3 h at room temperature or overnight at 4° C. and washed 3 times with PBS. Control resin (tetrazine-free quenched agarose) was prepared in the same way, but pure PBS without amino-tetrazines was used for the initial incubation.

SMILES | % TE mean ± SD, 2nd evaluation, TCO-CC49 (TCO-CC49) | % TE mean ± SD, 1st evaluation, TCO-CC49 (TCO-CC49) | % TE mean ± SD, 2nd evaluation, TCO-KS254 [1] [%] | % TE mean ± SD, 1st evaluation, TCO-KS254 [1] [%] | Trapping efficiencies of TCO-KS254 polymer compared with resins with shorter or no linker (tetrazines 1, 3 and 5) [1] | Concentration to which the tetrazine could be dissolved [2] [mM]
NCc1ccc(-c2nncnn2)cc1.O=C(O)C(F)(F)F [Tetrazine 3, (4-(1,2,4,5-Tetrazin-3-yl)phenyl)methanaminium trifluoroacetate] | 96 ± 0.4% | 99 ± 1^ % | 78 ± 1 | 93 ± 10 |  | 
NCCOCCOCCOCCOCCOCCOCCOCCOCCOCCOCCOCCNC(=O)CCCC(=O)NCc1ccc(-c2nncnn2)cc1 [Tetrazine 4, 37,41-dioxo-41-((4-(1,2,4,5-Tetrazin-3-l)benzyl)amino)-3,6,9,12,15,18,21,24,27,30,33-undecaoxa-36-azahentetracontan-1-aminium trifluoroacetate] | 92 ± 0.4% | 96 ± 6^ % | 56 ± 2 | 75 ± 0.2 | lower trapping efficiencies | 
NCCCCCCCC(=O)Nc1ccc(-c2nnc(-c3ccccn3)nn2)nc1.O=C(O)C(F)(F)F [Tetrazine 5, 8-amino—N-(6-(6-(pyridin-2-yl)-1,2,4,5-tetrazin-3-yl)pyridin-3-yl)octanamide 2,2,2-trifluoroacetate] | 89 ± 3^ % | 98 ± 0.4% | 67 ± 0.3 | 85 ± 5 |  | 2.7
NCCOCCOCCOCCOCCOCCOCCOCCOCCOCCOCCOCCNC(=O)CCCC(=O)Nc1ccc(-c2nnc(-c3ccccn3)nn2)nc1.O=C(O)C(F)(F)F [Tetrazine 6, 37,41-dioxo-41-((6-(6-(pyridin-2-yl)-1,2,4,5-tetrazin-3-yl)pyridin-3-yl)amino)-3,6,9,12,15,18,21,24,27,30,33-undecaoxa-36-azahentetracontan-1-aminium trifluoroacetate] | 72 ± 1^ % | 93 ± 7^ % | 50 ± 6 | 64 ± 0 | lower trapping efficiencies | 

From US20230310643A1, “EXTRACORPOREAL CLEARING TRAPS BASED ON INVERSE ELECTRON DEMAND DIELS-ALDER CYCLOADDITION FOR (PRE)-TARGETED THERAPY AND DIAGNOSTICS” (RIGSHOSPITALET, priority 2020, published 2023)
